# Assay results: PubChem BioAssay (NCI)
#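 Five compound concentrations were applied to cells in 96-well plates for 48 hours; endpoints were derived by simple linear interpolation of the resulting dose-response curve. Here, GI50 denotes the concentration required for 50% inhibition of growth. At the TGI there is no net growth.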
# Key:
# Test in all cases: NCI tumour cell line growth inhibition, 48 h
# 786-0 renal = test system: 786-0 renal
# A498 renal = test system: A498 renal
# A549 NSCLC = test system: A549 NSCLC
# ACHN renal = test system: ACHN renal
# BT-549 breast = test system: BT-549 breast
# CAKI-1 renal = test system: CAKI-1 renal
# CCRF-CEM leukemia = test system: CCRF-CEM leukemia
# COLO 205 colon = test system: COLO 205 colon
# DU-145 prostate = test system: DU-145 prostate
# EKVX NSCLC = test system: EKVX NSCLC
# HCC-2998 colon = test system: HCC-2998 colon
# HCT-116 colon = test system: HCT-116 colon
# HCT-15 colon = test system: HCT-15 colon
# HL-60(TB) leukemia = test system: HL-60(TB) leukemia
# HOP-62 NSCLC = test system: HOP-62 NSCLC
# HS 578T breast = test system: HS 578T breast
# HT29 colon = test system: HT29 colon
# IGROV1 ovarian = test system: IGROV1 ovarian
# K-562 leukemia = test system: K-562 leukemia
# KM12 colon = test system: KM12 colon
# LOX IMVI melanoma = test system: LOX IMVI melanoma
# M14 melanoma = test system: M14 melanoma
# MALME-3M melanoma = test system: MALME-3M melanoma
# MCF7 breast = test system: MCF7 breast
# MDA-MB-231 breast = test system: MDA-MB-231 breast
# MDA-MB-435 = test system: MDA-MB-435
# MDA-MB-468 breast = test system: MDA-MB-468 breast
# MOLT-4 leukemia = test system: MOLT-4 leukemia
# NCI-H226 lung = test system: NCI-H226 lung
# NCI-H23 lung = test system: NCI-H23 lung
# NCI-H460 lung = test system: NCI-H460 lung
# NCI-H522 lung = test system: NCI-H522 lung
# NCI/ADR-RES ovarian = test system: NCI/ADR-RES ovarian
# OVCAR-3 ovarian = test system: OVCAR-3 ovarian
# OVCAR-4 ovarian = test system: OVCAR-4 ovarian
# OVCAR-5 ovarian = test system: OVCAR-5 ovarian
# OVCAR-8 ovarian = test system: OVCAR-8 ovarian
# PC-3 prostate = test system: PC-3 prostate
# RPMI-8226 leukemia = test system: RPMI-8226 leukemia
# RXF 393 renal = test system: RXF 393 renal
# SF-268 CNS = test system: SF-268 CNS
# SF-295 CNS = test system: SF-295 CNS
# SF-539 CNS = test system: SF-539 CNS
# SK-MEL-2 melanoma = test system: SK-MEL-2 melanoma
# SK-MEL-28 melanoma = test system: SK-MEL-28 melanoma
# SK-MEL-5 melanoma = test system: SK-MEL-5 melanoma
# SK-OV-3 ovarian = test system: SK-OV-3 ovarian
# SN12C renal = test system: SN12C renal
# SNB-19 CNS = test system: SNB-19 CNS
# SR leukemia = test system: SR leukemia
# SW-620 colon = test system: SW-620 colon
# T-47D breast = test system: T-47D breast
# TK-10 renal = test system: TK-10 renal
# U251 CNS = test system: U251 CNS
# UACC-257 melanoma = test system: UACC-257 melanoma
# UACC-62 melanoma = test system: UACC-62 melanoma
# UO-31 renal = test system: UO-31 renal
structure (smiles),measurement,setting,value
CN1CCN(c2ccc(C(=O)/C=C/c3ccc(Br)cc3)cc2)CC1,GI50,786-0 renal,29.5 µM
same,TGI,786-0 renal,> 100 µM
same,GI50,A498 renal,> 100 µM
same,TGI,A498 renal,> 100 µM
same,GI50,A549 NSCLC,28.1 µM
same,TGI,A549 NSCLC,> 100 µM
same,GI50,ACHN renal,54.9 µM
same,TGI,ACHN renal,> 100 µM
same,GI50,BT-549 breast,12 µM
same,TGI,BT-549 breast,46.7 µM
same,GI50,CAKI-1 renal,32.2 µM
same,TGI,CAKI-1 renal,> 100 µM
same,GI50,CCRF-CEM leukemia,40.9 µM
same,TGI,CCRF-CEM leukemia,95.5 µM
same,GI50,COLO 205 colon,50.1 µM
same,TGI,COLO 205 colon,> 100 µM
same,GI50,DU-145 prostate,86.6 µM
same,TGI,DU-145 prostate,> 100 µM
same,GI50,EKVX NSCLC,> 100 µM
same,TGI,EKVX NSCLC,> 100 µM
same,GI50,HCC-2998 colon,15.2 µM
same,TGI,HCC-2998 colon,50.4 µM
same,GI50,HCT-116 colon,3.54 µM
same,TGI,HCT-116 colon,18.5 µM
same,GI50,HCT-15 colon,5.64 µM
same,TGI,HCT-15 colon,> 100 µM
same,GI50,HL-60(TB) leukemia,10.7 µM
same,TGI,HL-60(TB) leukemia,33.6 µM
same,GI50,HOP-62 NSCLC,> 100 µM
same,TGI,HOP-62 NSCLC,> 100 µM
same,GI50,HS 578T breast,> 100 µM
same,TGI,HS 578T breast,> 100 µM
same,GI50,HT29 colon,15.8 µM
same,TGI,HT29 colon,> 100 µM
same,GI50,IGROV1 ovarian,34.5 µM
same,TGI,IGROV1 ovarian,> 100 µM
same,GI50,K-562 leukemia,6.96 µM
same,TGI,K-562 leukemia,78.5 µM
same,GI50,KM12 colon,16.6 µM
same,TGI,KM12 colon,> 100 µM
same,GI50,LOX IMVI melanoma,13.7 µM
same,TGI,LOX IMVI melanoma,50.6 µM
same,GI50,M14 melanoma,36.6 µM
same,TGI,M14 melanoma,> 100 µM
same,GI50,MALME-3M melanoma,> 100 µM
same,TGI,MALME-3M melanoma,> 100 µM
same,GI50,MCF7 breast,5.67 µM
same,TGI,MCF7 breast,> 100 µM
same,GI50,MDA-MB-231 breast,> 100 µM
same,TGI,MDA-MB-231 breast,> 100 µM
same,GI50,MDA-MB-435,22.4 µM
same,TGI,MDA-MB-435,98 µM
same,GI50,MDA-MB-468 breast,7.85 µM
same,TGI,MDA-MB-468 breast,41 µM
same,GI50,MOLT-4 leukemia,31.3 µM
same,TGI,MOLT-4 leukemia,> 100 µM
same,GI50,NCI-H226 lung,45.5 µM
same,TGI,NCI-H226 lung,> 100 µM
same,GI50,NCI-H23 lung,> 100 µM
same,TGI,NCI-H23 lung,> 100 µM
same,GI50,NCI-H460 lung,> 100 µM
same,TGI,NCI-H460 lung,> 100 µM
same,GI50,NCI-H522 lung,> 100 µM
same,TGI,NCI-H522 lung,> 100 µM
same,GI50,NCI/ADR-RES ovarian,76 µM
same,TGI,NCI/ADR-RES ovarian,> 100 µM
same,GI50,OVCAR-3 ovarian,24.4 µM
same,TGI,OVCAR-3 ovarian,96 µM
same,GI50,OVCAR-4 ovarian,70.8 µM
same,TGI,OVCAR-4 ovarian,> 100 µM
same,GI50,OVCAR-5 ovarian,51.9 µM
same,TGI,OVCAR-5 ovarian,> 100 µM
same,GI50,OVCAR-8 ovarian,54.9 µM
same,TGI,OVCAR-8 ovarian,> 100 µM
same,GI50,PC-3 prostate,28.2 µM
same,TGI,PC-3 prostate,> 100 µM
same,GI50,RPMI-8226 leukemia,5.38 µM
same,TGI,RPMI-8226 leukemia,32.2 µM
same,GI50,RXF 393 renal,17.2 µM
same,TGI,RXF 393 renal,> 100 µM
same,GI50,SF-268 CNS,> 100 µM
same,TGI,SF-268 CNS,> 100 µM
same,GI50,SF-295 CNS,41.3 µM
same,TGI,SF-295 CNS,> 100 µM
same,GI50,SF-539 CNS,24.4 µM
same,TGI,SF-539 CNS,> 100 µM
same,GI50,SK-MEL-2 melanoma,> 100 µM
same,TGI,SK-MEL-2 melanoma,> 100 µM
same,GI50,SK-MEL-28 melanoma,76.2 µM
same,TGI,SK-MEL-28 melanoma,> 100 µM
same,GI50,SK-MEL-5 melanoma,22.5 µM
same,TGI,SK-MEL-5 melanoma,> 100 µM
same,GI50,SK-OV-3 ovarian,53.9 µM
same,TGI,SK-OV-3 ovarian,> 100 µM
same,GI50,SN12C renal,22.7 µM
same,TGI,SN12C renal,> 100 µM
same,GI50,SNB-19 CNS,> 100 µM
same,TGI,SNB-19 CNS,> 100 µM
same,GI50,SR leukemia,8.37 µM
same,TGI,SR leukemia,48.7 µM
same,GI50,SW-620 colon,23.2 µM
same,TGI,SW-620 colon,> 100 µM
same,GI50,T-47D breast,28.7 µM
same,TGI,T-47D breast,> 100 µM
same,GI50,TK-10 renal,> 100 µM
same,TGI,TK-10 renal,> 100 µM
same,GI50,U251 CNS,20.8 µM
same,TGI,U251 CNS,> 100 µM
same,GI50,UACC-257 melanoma,> 100 µM
same,TGI,UACC-257 melanoma,> 100 µM
same,GI50,UACC-62 melanoma,17.1 µM
same,TGI,UACC-62 melanoma,38.2 µM
same,GI50,UO-31 renal,16.9 µM
same,TGI,UO-31 renal,> 100 µM
